# Columns and labels:
# Assay type in all cases: cell-based
# Leishmania donovani [1] = test: Leishmania donovani intramacrophage inhibition assay (Ld-INMAC); conditions: intramacrophage amastigotes in THP-1 cells, read-out: Ld-INMAC pEC50 (converted)
# Procedure: Assay Method for Measurement of In Vitro Inhibition of Leishmania donovani.
# These experiments were run in accordance with the method as detailed herein and results from these experiments are provided in the Experimental Results hereinafter.
# The intramacrophage Leishmania assay was performed as described in de Rycker et al (Antimicrob Agents Chemother, 2013 July; 57(7):2913-22. doi: 10.1128/AAC.02398-12). Briefly, 1 μl of compound was pre-dispensed into 384 well sterile intermediary plates. For single point screening, amphotericin B was added to all wells of column 24 as a positive control (final concentration 2 μM) and DMSO to column 23. For potency determinations, ten-point, one in three dilution curves were created with the highest concentration being 50 μM and on each plate a control curve of amphotericin B was included. Controls were as follows: columns 11 and 12: DMSO, columns 23 and 24: amphotericin B (final concentration 2 μM). To the intermediary plates, 100 μl of THP-1 media was added and plates were shaken for >5 min to ensure complete mixing. THP-1 cells (8,000 per well, 50 μl) were plated into black clear-bottom 384 well plates (Corning) in presence of 10 nM PMA. After 20 min at room temperature, the plates were incubated at 37° C. under 5% CO2 in a humidified incubator for 75 h. The cells were then washed with […] sterile phosphate buffered saline (PBS) supplemented with 1 mM CaCl2, 0.5 mM MgCl2, 0.1% (w/v) bovine serum albumin (PBS-A) and amastigotes were added to all wells at a multiplicity of infection of 5 (40,000 amastigotes per well). After 40 min at room temperature, plates were returned to the incubator. Amastigotes were incubated in the presence of macrophages for 16 h. Any remaining extracellular amastigotes were subsequently removed with an overflow wash of 1 ml PBS-A per well (wash buffer is being aspirated from the top of the well as it is being dispensed) followed by addition of 25 μl of the compound pre-dilutions using a Matrix Hydra DT pipetting station. The final dilution of each compound was 200-fold. Plates were incubated for 72 h and then washed (250 μl PBS-A) and fixed (4% (v/v) formaldehyde-PBS, 30 min, room temperature). After fixation, the wells were washed with 250 μl PBS, stained (10 μg/ml DAPI, 0.4 μg ml-1 HCS Cellmask Deep Red in PBS+0.1% (v/v) Triton X-100, 30 min, room temperature) and washed with 250 μl PBS. Finally, PBS+0.05% (v/v) thimerosal was added to the wells, the plates were sealed and imaged on a high-content microscope (GE IN Cell 1000 or GE IN Cell 2000) using a 10× objective. Image analysis was carried out with GE IN Cell Analyzer 1000 Workstation using the “Multi Target Analysis” module. […]
# THP-1 cells = test: THP-1 host cell count in intramacrophage Leishmania assay; conditions: Homo sapiens, host cell toxicity, read-out: THP1 pEC50 (converted)
# Procedure: The intramacrophage Leishmania assay was performed as described in de Rycker et al (Antimicrob Agents Chemother, 2013 July; 57(7):2913-22. doi: 10.1128/AAC.02398-12). Briefly, 1 μl of compound was pre-dispensed into 384 well sterile intermediary plates. For single point screening, amphotericin B was added to all wells of column 24 as a positive control (final concentration 2 μM) and DMSO to column 23. For potency determinations, ten-point, one in three dilution curves were created with the highest concentration being 50 μM and on each plate a control curve of amphotericin B was included. Controls were as follows: columns 11 and 12: DMSO, columns 23 and 24: amphotericin B (final concentration 2 μM). To the intermediary plates, 100 μl of THP-1 media was added and plates were shaken for >5 min to ensure complete mixing. THP-1 cells (8,000 per well, 50 μl) were plated into black clear-bottom 384 well plates (Corning) in presence of 10 nM PMA. After 20 min at room temperature, the plates were incubated at 37° C. under 5% CO2 in a humidified incubator for 75 h. The cells were then washed with […] sterile phosphate buffered saline (PBS) supplemented with 1 mM CaCl2, 0.5 mM MgCl2, 0.1% (w/v) bovine serum albumin (PBS-A) and amastigotes were added to all wells at a multiplicity of infection of 5 (40,000 amastigotes per well). After 40 min at room temperature, plates were returned to the incubator. Amastigotes were incubated in the presence of macrophages for 16 h. Any remaining extracellular amastigotes were subsequently removed with an overflow wash of 1 ml PBS-A per well (wash buffer is being aspirated from the top of the well as it is being dispensed) followed by addition of 25 μl of the compound pre-dilutions using a Matrix Hydra DT pipetting station. The final dilution of each compound was 200-fold. Plates were incubated for 72 h and then washed (250 μl PBS-A) and fixed (4% (v/v) formaldehyde-PBS, 30 min, room temperature). After fixation, the wells were washed with 250 μl PBS, stained (10 μg/ml DAPI, 0.4 μg ml-1 HCS Cellmask Deep Red in PBS+0.1% (v/v) Triton X-100, 30 min, room temperature) and washed with 250 μl PBS. Finally, PBS+0.05% (v/v) thimerosal was added to the wells, the plates were sealed and imaged on a high-content microscope (GE IN Cell 1000 or GE IN Cell 2000) using a 10× objective. Image analysis was carried out with GE IN Cell Analyzer 1000 Workstation using the “Multi Target Analysis” module. Settings for segmentation were as follows: nuclei: minimum area: 142.384 μm^2, sensitivity: 81, method: top-hat; cells: characteristic area: 2500 μm^2, sensitivity: 60, method: multiscale top-hat; organelles (amastigotes): granule size 1-3, 3 scales, sensitivity: 90, detection in entire cell. […]
# M. tuberculosis H37Rv = test: In vitro inhibition of M. tuberculosis H37Rv (MIC, resazurin); conditions: Mycobacterium tuberculosis, read-out: Mtb MIC
# Hep G2 = Hep G2 in-vitro cytotoxicity assay; conditions: Homo sapiens, HepG2, read-out: Hs HEPG2 pEC50 (converted)
# Outline: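 Hep G2 human hepatocyte carcinoma cells serve as a general mammalian cell toxicity indicator, following the Mersch-Sundermann procedure.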
# [2] = test system: Plasmodium falciparum strain 3D7; test: Plasmodium falciparum 3D7 in vitro growth inhibition (SYBRgreen I); conditions: Plasmodium falciparum, 3D7; read-out: pEC50 for Pf 3D7 (converted)
# Outline: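 10-point, 1-in-3 dilution series from a top concentration of 50 μM; parasite growth read as SYBRgreen I fluorescence on double-stranded DNA (ex 485/em 528 nm). EC50 = concentration causing 50% parasite death, from at least 3 independent experiments.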
# Cryptosporidium parvum = test: In vitro Crytosporidium inhibition assay; conditions: Cryptosporidium parvum; read-out: Cryptosporidium parvum pEC50 (converted)
# Text: Assay Method for Measurement of In Vitro Inhibition of Crytosporidium.
# These experiments were run in accordance with the method of Besssoff et. al. Antimicrob. Agents Chemother. 2013, 57:1804-1814. Results from these experiments are provided in the Experimental Results hereinafter.
# Leishmania donovani [3] = test: Ld-cAxAm-TP-pMIC assay; conditions: read-out: Ld-cAxAm-TP-pMIC pEC50 (converted)
compound,measurement,setting,value
"O=C(NCC1CCCCC1)c1cc(=O)c2cc(F)cc(O)c2o1 [Example 70, N-(cyclohexylmethyl)-6-fluoro-8-hydroxy-4-oxo-4H-chromene-2-carboxamide]",EC50,Leishmania donovani [1],15.8 µM
same,EC50,THP-1 cells,50.1 µM
same,MIC,M. tuberculosis H37Rv,30 µM
same,EC50,Hep G2,31.6 µM
same,EC50,[2],0.1 µM
same,EC50,Cryptosporidium parvum,0.0398 µM
same,EC50,Leishmania donovani [3],0.794 µM

# — patent US11485720B2, “Anti-infective agents” (University of Dundee, priority 2016, dated 2022)
